# Legend:
# Type in all cases: in vivo
# [1] = system: Tetranychus urticae; test: Test Example 2: foliar spray on kidney bean leaves carrying Tetranychus urticae adults, insect death rate; conditions: etoxazole 0.8 ppm alone, 3 days after treatment
# Description: (§1) Kidney beans (Nagauzura saitou) were planted (one plant per container) in plastic containers (volume: 90 ml) and grown until the primary leaves had fully expanded. Only one leaf of each kidney bean plant was left on the plant and all the other leaves were removed from the plant. Then, 10 adults of Tetranychus urticae were released on each leaf.
# (§2) A suspension concentrate containing 10.0% by weight of etoxazole [product name: Baroque (registered trademark) flowable, manufactured by Kyoyu Agri Co., Ltd.] was diluted with water containing 0.02% by volume of a spreading agent [product name: Sindain (registered trademark), manufactured by Sumitomo Chemical Co., […]
# (§3) A reference standard containing 99.9% by weight of fenazaquin was diluted with water containing 0.02% by volume of a spreading agent [product name: Sindain (registered trademark), manufactured by Sumitomo Chemical Co., Ltd.] so that the concentration of fenazaquin became 50 ppm. […]
# Four days after the release of the insects, each test solution was sprayed onto the leaves of kidney bean plants and the leaves were air-dried. […] An insect death rate was calculated according to the following equation. […]
# [2] = system: Tetranychus urticae; test: Test Example 1: foliar spray on kidney bean leaves carrying Tetranychus urticae adults, insect death rate; conditions: etoxazole 0.000781 ppm alone, 2 days after treatment
# Description: as §1, with “5” for “10”
# as §2, §3
# Three days after the release of the insects, each test solution was sprayed onto the leaves of kidney bean plants and the leaves were air-dried. […] An insect death rate was calculated according to the following equation. […]
# [3] = system: Bemisia tabaci; test: Test Example 3: spray on cabbage seedlings carrying Bemisia tabaci, insect death rate; conditions: 2 days after treatment
# Description: Cabbages (Green ball) were planted (one plant per container) in plastic containers (volume: 90 ml) and grown until the third to fourth leaf stage. Only one leaf of each cabbage plant was left on the plant and all the other leaves were removed from the plant. The plastic containers were put into a net cage containing a lot of living Bemisia tabaci and allowed to stand for 24 hours. After that, the plastic containers were taken out from the cage and the number of living insects (Bemisia tabaci) on the cabbage seedlings was determined (This is called the “number of insects before treatment”).
# A suspension concentrate containing 10.0% by weight of etoxazole [product name: Baroque (registered trademark) flowable, manufactured by Kyoyu Agri Co., Ltd.] was diluted with water containing 0.02% by volume of a spreading agent [product name: Sindain (registered trademark), manufactured by Sumitomo Chemical Co., Ltd.] so that the concentration of etoxazole became 800 ppm.
# A reference standard containing 99.9% by weight of fenazaquin was diluted with water containing 0.02% by volume of a spreading agent [product name: Sindain (registered trademark), manufactured by Sumitomo Chemical Co., Ltd.] so that the concentration of fenazaquin became 50 ppm.
# The water dilution of etoxazole, the water dilution of fenazaquin, and water containing 0.02% by volume of a spreading agent [product name: Sindain (registered trademark), manufactured by Sumitomo Chemical Co., Ltd.] were mixed to prepare a test solution with a predetermined concentration of etoxazole and/or fenazaquin.
# Then, each test solution was sprayed onto the plastic containers to sufficiently soak cabbage seedlings, and allowed to stand for room temperature (about 25° C.). Two days after the treatment, the number of living insects (Bemisia tabaci) on the cabbage seedlings was determined (This is called the “number of insects after treatment”).
# An insect death rate was calculated according to the following equation. For each treatment there are duplicates. […]
compound,measurement,setting,value
"CCOc1cc(C(C)(C)C)ccc1C1COC(c2c(F)cccc2F)=N1 (centres unmarked) [Etoxazole, 2-(2,6-difluorophenyl)-4-[4-(1,1-dimethylethyl)-2-ethoxyphenyl]-4,5-dihydrooxazole]",Insect death rate (%),[1],15%
same,Insect death rate (%),[2],10%
same,Insect death rate (%),[3]; etoxazole 50 ppm alone,15%
same,Insect death rate (%),[3]; etoxazole 200 ppm alone,17%
same,Insect death rate (%),[3]; etoxazole 800 ppm alone,32%

# Source: patent US8981091B2, “Pest control composition” (Sumitomo Chemical Company, Limited, priority 2011, dated 2015)
